# From patent US20250195499A1, “METHODS FOR PREVENTING OR TREATING CEREBROVASCULAR DISEASES OR TISSUE ISCHEMIA-REPERFUSION INJURY” (CO., LTD. OF JEAMOON TECHNOLOGY, priority 2022, published 2025)
# “Also recorded” adds a separate entry of the source.
# What was measured:
# [1] = system: MCAO cerebral ischemia-reperfusion (IR) mice; assay: MCAO cerebral ischemia-reperfusion (IR) mouse model, infarct area by TTC staining; type: in vivo, C57BL/6J mice; settings: for Infarct area percentage (%) X ± SD: IR mice, po, QD, from 4 days before surgery, 1 h ischemia, 24 h reperfusion, IR model group 48.42 ± 24.21; for Infarcted area compared with the IR group mice (in words): oral administration
# Procedure: A surgical incision was made in the neck to expose a left common carotid artery (CCA), an internal carotid artery (ICA), and an external carotid artery (ECA). A pre-made filament was inserted through the external carotid artery into the internal carotid artery and advanced to a middle cerebral artery (MCA), causing ischemia in a left brain region. After 60 minutes of occlusion, the filament was removed to achieve reperfusion in the left brain region. FIG. 5 is a schematic diagram illustrating the MCAO cerebral ischemia model using the intraluminal filament approach.
# 1. Animal anesthesia and neck preparation: the mice were anesthetized by inhalation of 2% isoflurane gas. After muscle relaxation, the four limbs of the mice were fixed to an operating table with 3M medical tape. Depilatory cream was used to remove the hair on a side of the neck, and erythromycin eye ointment was applied to the eyeballs of the mice to prevent eye dryness.
# 2. Surgical incision: the neck skin was disinfected sequentially with iodophor and 75% alcohol cotton balls. A 3 cm incision was made along the midline of the neck. Under a stereomicroscope, the subcutaneous tissue and fat were bluntly dissected, the superficial fascia and platysma were incised to expose the deep fascia of the neck and the anterior tracheal muscle. After the anterior tracheal muscle was exposed, the deep cervical fascia was torn along an anterior edge of the left sternocleidomastoideole, exposing the sternocleidomastoideole, which was then pulled posteriorly. The dissection continued downward along the sternocleidomastoideole until the deeper carotid sheath was exposed.
# 3. Vessel exposure and isolation: while avoiding compression of the mouse trachea, the carotid sheath was incised, and the common carotid artery (CCA) was isolated, taking care not to damage the vagus nerve running alongside in the sheath, as simulation or injury to the nerve may cause sudden respiratory arrest in the animal. The dissection continued upward along the common carotid artery, and the external carotid artery was identified at an upper edge of the thyroid cartilage. […] A proximal end of the external carotid artery was gently lifted to expose the internal carotid artery located laterally and inferiorly.
# 4. […] The internal carotid artery was temporarily clamped with a microvascular clip. […] The branch vessels were coagulated using an electrocautery pen. A distal end of the external carotid artery was permanently ligated with a 6-0 silk ligature, while the proximal end was looped for later use.
# 5. Filament insertion: a small incision was made at a ligated distal end of the external carotid artery, and the filament was threaded through the incision and tied with the pre-prepared loop ligature. The incision was cut off, and the filament was adjusted and threaded into the internal carotid artery. […] The ligature was tightened to fix the filament and timing started immediately.
# 6. After suturing the skin, anesthesia was discontinued. Following 60 minutes of ischemia, the filament was removed to complete cerebral ischemia-reperfusion.
# 7. Close the incision: the incision was closed using interrupted 4-0 sutures, disinfected with iodophor, and 3 mL of saline was injected intraperitoneally for rehydration. Postoperative analgesia jelly was provided, and the mice were kept warm and monitored continuously until they recover from anesthesia.
# C57BL/6J male mice, aged 8 weeks, were acclimatized for 1 week and then randomly assigned to 7 groups. Except for eight mice in the blank control group (i.e., the sham-operated control group), the remaining mice underwent MCAO surgery to induce cerebral ischemia and were randomly divided into 6 groups, including an IR model group, a TAK875 group (12 mice per group), and four LY2922470 groups with different concentrations (8 mice per group). […]
# [2] = system: MCAO cerebral ischemia-reperfusion (IR) mice; settings: male, C57BL/6J, mouse, in vivo, 5 days
Compound,Infarct area percentage (%) X ± SD ([1]; LY2922470 10 mg/kg),Infarct area percentage (%) X ± SD ([1]; LY2922470 20 mg/kg) [%],Infarct area percentage (%) X ± SD ([1]; LY2922470 40 mg/kg),Infarct area percentage (%) X ± SD ([1]; LY2922470 80 mg/kg) [%],Infarcted area in the brain compared with the IR group mice (in words) ([1]; LY2922470 10 mg/kg),Infarcted area in the brain compared with the IR group mice (in words) ([1]; LY2922470 40 mg/kg),Infarcted area compared with the IR group mice (in words) ([1]; different doses of LY2922470 (10-80 mg/kg)),Infarct area percentage (%) X ± SD ([1]; TAK875 30 mg/kg) [%],Infarcted area compared with the IR group mice (in words) ([1]; TAK875 30 mg/kg),Time of death after reperfusion [2] [h],"Deaths after MCAO cerebral ischemia surgery ([2]; po, 30 mg/kg)"
CC#C[C@@H](CC(=O)O)c1ccc(OCc2ccc(CN3CCCc4cccc(OC)c43)s2)cc1 [LY2922470],26.77 ± 14.54 (*) %,30.55 ± 16.52,20.4 ± 6.88 (**) %,31.03 ± 17.8,significantly reduced,significantly reduced,the infarcted area in the mice was reduced; also recorded: significantly decreased,,,,
Cc1cc(OCCCS(C)(=O)=O)cc(C)c1-c1cccc(COc2ccc3c(c2)OC[C@H]3CC(=O)O)c1 [TAK875],,,,,,,,48.9 ± 25.13,no significant decrease in the size of the infarcted area,18,one from the TAK875 group died
